Data set [1] can be described thus: Unbound teicoplanin plasma concentration, ultrafiltration and UPLC-MS/MS. Type of data set: in vivo, human. To be noted: plasma ultrafiltrate (Centrifree, 37°C), 103 observations, 72 patients, daily dose 50–1,600 mg i.v. How it is done:
(§1) However, prescribed dosing regimens were at the discretion of treating physicians based on the severity of the patient’s disease and the standard dosing regimen was not always followed. The daily dose range of patients included in this study was 50–1,600 mg.
(§2) Blood samples were typically collected within 30 min to 1 h preceding the 4th dose and the 6th dose, and depending on the actual clinical situation, blood samples might be taken at other time for TDM during the treatment. The Plasma samples were placed in a Centrifree® ultrafiltration device and placed in a 37°C water bath for 30 min, followed by centrifugation at 37°C, 1,500 × g for 30 min, and the ultrafiltrate was directly used for the determination of unbound concentration by ultra-performance liquid chromatography-tandem mass spectrometry (UPLC-MS/MS) method. […] The average relative recovery ratio was 97.9%, and the matrix effect factor was 0.97. Details of blood handling, storage and measurement have been described previously ([Fu et al., 2020]).

A short description of data set [2]: Population pharmacokinetic (NONMEM) model of unbound teicoplanin in Chinese adult patients. Type of data set: in vivo, human. How it is done: The pregnant female patients, hemodialysis patients, disseminated intravascular coagulation patients, and continuous renal replacement therapy patients were excluded.
as §1, §2
The PopPK modeling was performed using NONMEM (non-linear mixed effects modeling, v7.2, Globomax Corp, United States), and Wings for NONMEM (v6.1, Nick Holford, University of Auckland, New Zealand) was used as an auxiliary software for NONMEM execution. R (v3.6.1, Saik Urien, U.R.C. Paris Centre, Hopital Tarnier, France) was used for exploratory data analysis, data assembly, and graphical presentation of modeling and simulation results.
The parameter estimation method for PopPK model was FOCEI (first order conditional estimation with η-ε interaction option). The inter-individual variability (IIV) of the parameters were estimated using exponential random effects. θi=θ∙e^ηi (5) Where θi is the estimated parameter value of the individual i, θ represents the typical population parameter, and ηi (IIV) is assumed to follow the normal distribution with mean of 0 and variance of ω^2 and was estimated during model fitting.
The additive, proportional, and mixed residual error models were compared separately, and finally the mixed residual error model was selected for data fitting.
Covariate modeling analysis was used to explore the source of variability.
The stepwise covariate modeling approach was used to establish the covariate model in this analysis. During the forward selection step, all covariates were added to the PK parameters in the base model one by one. Covariates were screened based on the changes in objective function values (OFV) and graphical evaluation. The covariate with a significant effect (p < 0.05, e.g., df = 1, ΔOFV ≥ 3.84) would be added to the basic model to build a full model. Based on the full model, the existing covariates were deleted one by one as the backward elimination step. For each deleted covariate, the increase in OFV should be ≥ 10.83 (p < 0.001, df = 1), otherwise, this covariate should be excluded from the final model.
Continuous covariates (e.g., WT) were added to the model according to the following equation. θi=θTV×(covi/covmedian)^θx (7) Where θi is the parameter value of the ith individual; θTV is the population typical value of PK parameters; covi is the covariate value of the ith individual; covmedian is the median value of this covariate; θx is the influence coefficient of the covariate on the parameters.
Categorical covariates (e.g., gender) were added to the model according to the following equations: θi=θTV+θx,cov=xl if Cov=Xl (8) θi=θTV if Cov=X0 (9) Where θx,cov=xl is the change in a parameter when covariate X is at level l compared with the reference level (0).
The performance and stability of the final model were estimated using non-parametric bootstrap. 1,000 datasets generated by random sampling were evaluated. […]

Another data set has as its system serum albumin. Conditions: ref Gao et al., 2020; cited from earlier work. As to the method:
In this study, the protein binding ratio was calculated as the average value of 92.5%.

For data set [3] the following is noted: ref Pauluzzi et al., 1987; cited from earlier work. From the text:
Previous studies have shown that adverse events inc ...

The mark [4] stands for this setting: non-parametric bootstrap, 1,000 datasets.

Some results are limits rather than exact numbers.

Regarding teicoplanin, the “Unbound teicoplanin concentrations, range” value in data set [1] lay in the range of 0.4 to 4.4 µg/mL. In data set [1] (mostly trough, SD), the “Unbound teicoplanin concentrations, mean ± SD” value amounted to 1.5 ± 0.9 µg/mL. Also, in data set [2] (setting [4]), the “θALB, bootstrap median” value is given as 1.55 g/L; the “θCL, bootstrap median” value is reported as 11.38 L/h; the “θV, bootstrap median” value is 822 L; the “θeGFR, bootstrap median” value stood at 0.501 mL/min. Also, the “θV, population typical value of the volume of distribution (NONMEM estimate)” value in data set [2] (unbound teicoplanin, one-compartment model, 72 patients, 103 observations, at ALB 32) is on record as 811 L. Further, the “θCL, population typical value of clearance (NONMEM estimate)” value in data set [2] (unbound teicoplanin, one-compartment, first-order elimination, 72 Chinese adult patients, 103 observations, i.v. infusion, at eGFR 84) is reported as 11.7 L/h. The “bound to serum albumin (protein binding ratio)” value in the data set on serum albumin is 90%–95%. The “total Ctrough above which thrombocytopenia was more common” value in data set [3] was above 60 µg/mL.

These data come from publication PMC9728581 (Frontiers in Pharmacology, 2022).
